In article PMC4774911, “Biochemical Screening of Five Protein Kinases from Plasmodium falciparum against 14,000 Cell-Active Compounds” (PLoS ONE, 2016):
Like-named read-outs stand apart in the source and are kept apart here.

Columns and labels:
[1] = target: T1, Plasmodium falciparum calcium-dependent protein kinase 1 (CDPK1) (Plasmodium falciparum, UniProt P62344); assay: CDPK1 Kinase-Glo ATP-consumption screen and dose-response; type: biochemical
T1 construct: 6-Histidine (N); made in house
In short: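 Single-point testing used 1 μM final compound, then dose-response, against CDPK4 and CDPK1 with Syntide-2 (40 μM) as substrate. After 90 min, reactions were halted by 5 mM EGTA, and kinase activity was inferred from depleted ATP via Kinase-Glo luminescence.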

HepG2 cells = details: HEPG2; ref downloaded from ChEMBL; cited from earlier work
P. falciparum 3D7 cells = details: 3D7; ref downloaded from ChEMBL; cited from earlier work
DD2 = system: DD2; set-up: method as in downloaded from ChEMBL; details: ref downloaded from ChEMBL; cited from earlier work
3D7 PFLDH = system: 3D7 PFLDH; set-up: method as in downloaded from ChEMBL; details: ref downloaded from ChEMBL; cited from earlier work
[2] = hits below 1 uM, read-out: CDPK1 IC50

T1 sequence (P62344 whole entry): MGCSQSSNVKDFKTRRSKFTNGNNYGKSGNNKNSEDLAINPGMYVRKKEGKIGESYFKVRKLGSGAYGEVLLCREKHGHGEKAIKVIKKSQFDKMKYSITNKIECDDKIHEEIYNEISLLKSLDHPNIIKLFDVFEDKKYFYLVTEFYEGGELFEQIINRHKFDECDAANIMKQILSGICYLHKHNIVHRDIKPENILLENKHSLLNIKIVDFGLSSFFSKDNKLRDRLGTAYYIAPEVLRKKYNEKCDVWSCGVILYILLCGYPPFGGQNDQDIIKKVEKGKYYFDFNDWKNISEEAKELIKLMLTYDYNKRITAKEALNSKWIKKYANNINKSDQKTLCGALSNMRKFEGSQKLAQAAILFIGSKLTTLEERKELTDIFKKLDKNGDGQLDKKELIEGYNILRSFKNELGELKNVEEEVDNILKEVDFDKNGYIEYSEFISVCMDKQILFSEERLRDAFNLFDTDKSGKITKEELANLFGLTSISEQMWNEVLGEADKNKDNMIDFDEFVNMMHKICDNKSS

Compound | IC50 [1, 2] [nM] | PCT_INHIB_HEPG2 (HepG2 cells) | PCT_IHB_3D7 (P. falciparum 3D7 cells) | pXC50_3D7 (P. falciparum 3D7 cells) | PCT_INHB_DD2 (DD2) | PCT_INHIB_3D7_PFLDH (3D7 PFLDH) | IC50 [1] [nM]
CS(=O)(=O)Nc1cccc(-c2cnc3[nH]cc(-c4cccc(CN)c4)c3c2)c1 [TCMDC-136219] | 387 | 25 | 96 | 5.779 | 82 | 0 | 
CS(=O)(=O)c1cccc(-c2cnc3[nH]cc(-c4cccc(CCN)c4)c3c2)c1.O=C(O)C(F)(F)F [TCMDC-136307] | 44 | 0 | 99 | 5.808 | 74 | 0 | 
Oc1cccc(-c2cnc3ccc(NCc4ccc(F)cc4)nn23)c1 [TCMDC-136676] | 115 | 0 | 91 | 5.965 | 66 | 2 | 
N#Cc1ccc(-c2cnc3ccc(NCCc4cccnc4)nn23)cc1 [TCMDC-136679] | 246 | 27 | 99 | 6.593 | 81 | 6 | 
Clc1ccc(-c2cnc3ccc(NCCc4cccnc4)nn23)cc1 [TCMDC-136680] | 371 | 34 | 97 | 6.067 | 32 | 0 | 
COc1ccc(-c2cnc3ccc(NCCCO)nn23)cc1OC [TCMDC-136683] |  | 9 | 98 | 6.172 | 90 | 0 | 361
COc1ccc(-c2cnc3ccc(NC4CCC(O)CC4)nn23)cn1 (stereo not drawn) [TCMDC-136694] | 379 | 54 | 98 | 6.146 | 73 | 4 | 
Cl.Oc1cccc(Nc2ccnc3cc(-c4ccncc4)ccc23)c1 [TCMDC-138292] | 884 | 8 | 100 | 5.98 | 99 | 1 | 
Cc1nc(-c2cccc(Nc3ccnc4cc(-c5nccs5)ccc34)c2)no1.Cl [TCMDC-138334] | 191 | 37 | 99 | 6.492 | 90 | 0 | 
Cc1nnc(-c2cccc(Nc3ccnc4cc(-c5nccs5)ccc34)c2)o1.Cl [TCMDC-138335] | 186 | 38 | 95 | 6.199 | 89 | 0 | 
Oc1cc(Nc2ccnc3cc(I)ccc23)c(F)cc1Cl [TCMDC-138386] | 282 | 0 | 92 | 6.08 | 77 | 0 | 
CN(C)CCN(C)Cc1ccc(-c2ccc3c(Nc4ccc(Cl)cc4F)ccnc3c2)o1 [TCMDC-138388] | 604 | 20 | 100 | 6.444 | 76 | 1 | 
CN(C)Cc1ccc(-c2ccc3c(Nc4ccc(Cl)cc4F)ccnc3c2)o1 [TCMDC-138389] | 185 | 13 | 100 | 6.6173 | 99 | 0 | 
CN(C)CCNCc1ccc(-c2ccc3c(Nc4ccc(Cl)cc4F)ccnc3c2)o1 [TCMDC-138391] | 374 | 14 | 99 | 6.681 | 100 | 0 | 
CN1CCN(Cc2ccc(-c3ccc4c(Nc5ccc(Cl)cc5F)ccnc4c3)o2)CC1 [TCMDC-138395] | 406 | 47 | 100 | 6.811 | 100 | 0 | 
Fc1cc(Cl)ccc1Nc1ccnc2cc(-c3ccc(CNCCN4CCOCC4)o3)ccc12 [TCMDC-138397] | 383 | 13 | 100 | 6.5582 | 100 | 0 | 
c1ccc(Oc2ccc(Nc3ccnc4cc(-c5ccc(CNCCN6CCOCC6)o5)ccc34)cc2)cc1 [TCMDC-138398] | 435 | 20 | 99 | 6.358 | 99 | 0 | 
CN(C)CCNCc1ccc(-c2ccc3c(Nc4ccc(Oc5ccccc5)cc4)ccnc3c2)o1 [TCMDC-138399] | 681 | 19 | 100 | 6.553 | 99 | 2 | 
CN(C)CCN(C)Cc1ccc(-c2ccc3c(Nc4ccc(Oc5ccccc5)cc4)ccnc3c2)o1 [TCMDC-138400] | 718 | 5 | 100 | 6.746 | 100 | 0 | 
CN(C)CCN(C)Cc1nc(-c2ccc3c(Nc4ccc(Oc5ccccc5)cc4)ccnc3c2)cs1 [TCMDC-138408] | 915 | 27 | 100 | 6.673 | 100 | 0 | 
CN(C)CCNCc1nc(-c2ccc3c(Nc4ccc(Oc5ccccc5)cc4)ccnc3c2)cs1 [TCMDC-138410] | 887 | 8 | 100 | 6.1332 | 100 | 6 | 
CN(C)Cc1ccc(-c2ccc3c(Nc4ccc(Oc5ccccn5)cc4)ccnc3c2)o1 [TCMDC-138425] | 513 | 18 | 100 | 6.798 | 100 | 1 | 
COCCNCc1cccc(-c2ccc3c(Nc4cc(O)c(Cl)cc4F)ccnc3c2)c1 [TCMDC-138429] | 436 | 0 | 100 | 6.944 | 79 | 7 | 
CN1CCN(Cc2cccc(-c3ccc4c(Nc5cc(O)c(Cl)cc5F)ccnc4c3)c2)CC1 [TCMDC-138430] | 762 | 0 | 100 | 6.114 | 100 | 4 | 
CS(=O)(=O)CCNCc1cccc(-c2ccc3c(Nc4cc(O)c(Cl)cc4F)ccnc3c2)c1 [TCMDC-138435] | 71 | 9 | 100 | 6.595 | 100 | 0 | 
COCCNCc1ncsc1-c1ccc2c(Nc3cc(O)c(Cl)cc3F)ccnc2c1 [TCMDC-138441] | 150 | 0 | 100 | 6.262 | 92 | 0 | 
CN1CCN(Cc2ccc(-c3ccc4c(Nc5cc(O)c(Cl)cc5F)ccnc4c3)o2)CC1 [TCMDC-138446] | 131 | 2 | 100 | 6.961 | 99 | 0 | 
